One series concerns DENV2. The series can be described thus: Viral titer (plaque) reduction assay, DENV2 in A549 cells. It counts as cell-based, Dengue virus serotype 2. To be noted: Dengue virus, DENV2, A549 cells. As to the method:
Viral Titer Reduction Assay. A viral titer reduction assay was used to determine the compounds' effect on DENV2 and ZIKV strains, as described previously. […] Human A549 lung carcinoma cells and human primary neural progenitor cells were used, as described previously. […] 13:e1006411 (2017), which are hereby incorporated by reference in their entirety. All experiments were performed in triplicates.
A viral plaque reduction assay was performed next to evaluate the antiviral efficacy of these derivatives. Human lung carcinoma A549 cells were infected with DENV2 in the presence of a concentration series of derivatives or a dimethyl sulfoxide (DMSO) control, and viral titers were measured at 48 hrs post-infection, as described previously.

Series [1] in a line: WST-8 cell proliferation cytotoxicity assay. It counts as cell-based, human. To be noted: human; Table 4, preliminary SAR, A549 cells; read-out: CC50. On the procedure: (§1) Cytotoxicity Assay. […] All experiments were performed in triplicates.
(§2) To address this concern, next the compound cytotoxicity CC50 was measured using a WST-8 cell proliferation assay, as described previously.
In general terms: Tetrazolium dyes change colour on reduction, which living cells bring about.

Another series deals with A549 cells. The series can be described thus: WST-8 cell proliferation cytotoxicity assay. It counts as cell-based, human. Particulars: A549 cells; read-out: CC50 (A549). On the procedure:
as §1, §2

In series [2] the test system is ZIKV. The series can be described thus: qRT-PCR of viral RNA from ZIKV-infected A549 cells. It counts as cell-based, Zika virus. On the procedure: Quantitative qRT-PCR. Quantitative qRT-PCR was performed as described previously. Li et al., “Existing Drugs as Broad-Spectrum and Potent Inhibitors for Zika Virus by Targeting NS2B-NS3 Interaction,” Cell Res. 27:1046-1064 (2017); Li et al., “Erythrosin B is a Potent and Broad-Spectrum Orthosteric Inhibitor of the Flavivirus NS2B-NS3 Protease,” Antiviral Res. 150:217-225 (2018), which are hereby incorporated in their entirety. ZIKV primers […] (SEQ ID NO: 12) and […] (SEQ ID NO: 13) with ZIKV probe Cy5-[…]/TAO/[…]-IAbRQSp (SEQ ID NO: 14) were used. The 2-ΔΔCT (“delta-delta Ct”) method was used to quantify samples. All experiments were performed in triplicates.
In general terms: Quantitative PCR measures a nucleic acid by following its amplification.

Series [3] concerns ZIKV. The series can be described thus: ZIKV inhibition in human neural progenitor cells (IFA, qRT-PCR). Particulars: HNPC. The class given is cell-based, Zika virus. From the text: Viral Titer Reduction Assay. A viral titer reduction assay was used to determine the compounds' effect on DENV2 and ZIKV strains, as described previously. Li et al., “Existing Drugs as Broad-Spectrum and Potent Inhibitors for Zika Virus by Targeting NS2B-NS3 Interaction,” Cell Res. 27:1046-1064 (2017) and Li et al., “Erythrosin B is a Potent and Broad-Spectrum Orthosteric Inhibitor of the Flavivirus NS2B-NS3 Protease,” Antiviral Res. 150:217-225 (2018), which are hereby incorporated by reference in their entirety. Human A549 lung carcinoma cells and human primary neural progenitor cells were used, as described previously. Li et al., “Erythrosin B is a Potent and Broad-Spectrum Orthosteric Inhibitor of the Flavivirus NS2B-NS3 Protease,” Antiviral Res. 150:217-225 (2018); Brecher et al., “A Conformational Switch High-Throughput Screening Assay and Allosteric Inhibition of the Flavivirus NS2B-NS3 Protease,” PLoS Pathog. 13:e1006411 (2017), which are hereby incorporated by reference in their entirety. All experiments were performed in triplicates.
Immunofluorescence Assay. The immunofluorescence assay was performed using ZIKV-infected cells treated with DMSO or JMX0207, as described previously. […]
Quantitative qRT-PCR. Quantitative qRT-PCR was performed as described previously. […] The 2-ΔΔCT (“delta-delta Ct”) method was used to quantify samples. […]

Series [4] concerns ZIKV. The series can be described thus: Time of addition experiment. The class given is cell-based, Zika virus. To be noted: 0.75 μM added post-infection, titers at 48 hrs. As to the method: FIGS. 6A-6C show mechanism of action studies. […] Viral titers were quantified using plaque forming assay 48 hrs post-infection. DMSO was added to control. N=3. ***, p<0.001. […] N=3. […] Right, Band intensities of PP and NS3 normalized to the GAPDH control (N=3). […] Li et al., “Existing Drugs as Broad-Spectrum and Potent Inhibitors for Zika Virus by Targeting NS2B-NS3 Interaction,” Cell Res. 27:1046-1064 (2017), which is hereby incorporated by reference in its entirety. At 48 hrs post-infection, cells were washed, harvested, and protected by protease inhibitor cocktail prior to lysis by SDS-PAGE loading buffer. Upon incubation at 95° C. for 10 min, sample was subjected to Western blot analysis with anti-ZIKV NS3 (GTX133309, GeneTex, Inc.) and anti-GAPDH (CB1001, EMD Millipore) as primary antibodies. Error bars in all panels represent the standard deviations at each condition.
Antiviral inhibitors are generally divided into two categories, entry and post-entry (replication), respectively.

The conditions of series [5]: not told.
Another series is described as follows: in vitro. Particulars: not told, Perme. (cell permeability).

Structures are written as SMILES. Read-outs that look alike come from different tables or passages of the source.

For orientation: EC50 means the concentration giving half of the maximal effect. The CC50 is the concentration at which the toxic effect on the cells reaches its halfway point. In general, logP refers to the decadic logarithm of the partition coefficient of the neutral form, usually between octanol and water. Low values mean a more hydrophilic compound, high ones a more lipophilic compound. Broadly, the Papp is the rate of passage across a membrane or cell layer, normalised by area and donor concentration. A low value points to poor permeation. Turning to `O=C(Nc1ccc([N+](=O)[O-])cc1Cl)c1cccc([N+](=O)[O-])c1O` [JMX0207, N-(2-Chloro-4-nitrophenyl)-2-hydroxy-3-nitrobenzamide], the EC50 in the series with DENV2 (48 hrs post-infection, read-out: EC50-DN2 (A549)) is 0.31 µM; in the series on DENV2 (Table 4, preliminary SAR, read-out: EC50-DN2), 0.36 µM. Besides, the CC50 in [1] was found to be 33.9 µM; with A549 cells, 31.9 µM. In the series with ZIKV [2], the “ZIKV RNA copy number” value is given as “significantly reduced the ZIKV RNA copy number in a dose-dependent manner”. Moreover, the “ZIKV protein expression and RNA synthesis” value in the series on ZIKV [3] was “effectively inhibited ZIKV protein expression and RNA synthesis in HNPC in dose-dependent manner”. Further, the “reduction of ZIKV titer by time of addition” value in the series on ZIKV [4] is on record as “equally effective in reducing ZIKV titer even at 24 hrs post-infection”. Also, in “LogP”, the log partition coefficient (logP) was 2.72. Also, in series [5], the “Perme. (cell permeability)” value amounted to 1.3 ×10⁻⁶ cm/s. In addition, in “in vitro”, the Papp was above 1 ×10⁻⁶ cm/s.

(Values after patent US11767303B2, “Compounds and methods for inhibiting viral replication and methods of treating and preventing flaviviral infections” (priority 2020, dated 2023).)
